pEC50: −log10 of the molar value.
How the values were obtained:
Format in all cases: cell-based
[1] = system: genotype 2a stable HCV replicon (JFH-1 strain) in Huh-7-derived cells; test: Stable subgenomic HCV replicon EC50, genotype 2a (Renilla luciferase); details: Hepatitis C virus, stable replicon genotype 2a, 72 h, read-out: EC50 2A RLUC
Protocol: (§1) Antiviral potency (EC50) was determined in both stable subgenomic HCV replicon cell lines and transient-transfected HCV replicon cells. The term half maximal effective concentration (EC50) refers to the concentration of a drug which induces a response halfway between the baseline and maximum after the exposure time specified below.
(§2) Stable subgenomic HCV replicons for genotype 1a, 1 b, 2a, 3a, and 4a were established in Huh-7-derived cells as described by Lohmann et al (Lohmann V, Korner F, Koch J, et al Replication of subgenomic hepatitis C virus RNAs in a hepatoma cell line. Science 1999; 285:119-3). Each stable cell line contains a bicistronic HCV replicon that encodes a humanized Renilla luciferase (hRLuc) reporter gene fused to a selectable neomycin-resistance gene, followed by an EMCV IRES and the NS3-NS5B coding region of HCV. […] Luciferase activity was measured as a marker for intracellular HCV replication levels.
(§3) The genotype 1a stable replicon was derived from the H77 HCV strain and contained adaptive mutations P1496L and S2204I. The genotype 1 b stable replicon was derived from the Cont HCV strain and contained adaptive mutations E1202G, T1280I, and K1846T. […] The genotype 3a stable replicon was derived from the S52 HCV strain and contained adaptive mutations P1121 L, A1198T and S2210I (equivalent to S2204I in genotype 1). The genotype 4a stable replicon was derived from the ED43 HCV strain and contained adaptive mutations Q1691R and S2204I. All replicon cell lines were propagated in Huh-7-derived cells and maintained in Dulbecco's modified Eagle's Medium (DMEM) supplemented with 10% fetal bovine serum (FBS) and 0.5 mg/mL G418.
(§4) To perform EC50 assays, cells from each HCV replicon were dispensed into 384-well plates. Compounds were dissolved in DMSO at a concentration of 10 mM and diluted in DMSO using an automated pipetting instrument. Three-fold serially diluted compounds were directly added to the cells using an automated instrument. […] Seventy-two hours later, cells were lysed and Renilla luciferase activity were quantified as recommended by the manufacturer (Promega-Madison, Wis.). Non-linear regression was performed to calculate EC50 values.

[2] = system: genotype 3a transient HCV replicon (S52 strain) in Huh-7-derived cells; test: Transient-transfected HCV replicon EC50, genotype 3a wild type; details: Hepatitis C virus; transient-transfected replicon genotype 3a wild type, 72 h; read-out: EC50 3A WT
[3] = system: genotype 1a stable HCV replicon (H77 strain) in Huh-7-derived cells; test: Stable subgenomic HCV replicon EC50, genotype 1a (Renilla luciferase); details: Hepatitis C virus, stable replicon genotype 1a, 72 h, read-out: EC50 1A RLUC
Protocol: as §1, §2, §3, §4

[4] = system: genotype 1b transient HCV replicon, NS3/4a protease inhibitor resistant variant D168A, in Huh-7-derived cells; test: Transient-transfected HCV replicon EC50, genotype 1b D168A; details: Hepatitis C virus, 72 h, read-out: EC50 1B D168A
[5] = system: genotype 4a stable HCV replicon (ED43 strain) in Huh-7-derived cells; test: Stable subgenomic HCV replicon EC50, genotype 4a (Renilla luciferase); details: Hepatitis C virus, 72 h, read-out: EC50 4A RLUC
Protocol: as §1, §2, §3, §4

[6] = system: genotype 3a stable HCV replicon (S52 strain) in Huh-7-derived cells; test: Stable subgenomic HCV replicon EC50, genotype 3a (Renilla luciferase); details: Hepatitis C virus, 72 h, read-out: EC50 3A RLUC
Protocol: as §1, §2, §3, §4

[7] = system: genotype 1b stable HCV replicon in Huh-7-derived cells; test: Stable subgenomic HCV replicon EC50, genotype 1b (Renilla luciferase); details: Hepatitis C virus, stable replicon genotype 1b, 72 h, read-out: EC50 1B RLUC
Protocol: as §1, §2, §3, §4

[8] = system: genotype 1a transient HCV replicon, NS3/4a protease inhibitor resistant variant R155K, in Huh-7-derived cells; test: Transient-transfected HCV replicon EC50, genotype 1a R155K; details: Hepatitis C virus, 72 h, read-out: EC50 1A R155K

Row | SMILES | pEC50 [1] | pEC50 [2] | pEC50 [3] | pEC50 [4] | pEC50 [5] | pEC50 [6] | pEC50 [7] | pEC50 [8]
1 | CC[C@@H]1[C@@H]2CN(C(=O)[C@H](C(C)(C)C)NC(=O)O[C@@H]3C[C@H]3CC/C=C/C(F)(F)C3Nc4ccc(C#N)cc4N=C3O2)[C@@H]1C(=O)N[C@]1(C(=O)NS(=O)(=O)C2(C)CC2)C[C@H]1C(F)F (stereo partly drawn) [Example 78, (1aR,5S,8S,9S,10R,19E,22aR)-5-tert-butyl-14-cyano-N-[(1R,2R)-2-(difluoromethyl)-1-{[(1-methylcyclopropyl)sulfonyl]carbamoyl}cyclopropyl]-9-ethyl-18,18-difluoro-3,6-dioxo-1,1a,3,4,5,6,9,10,17,17a,18,21,22,22a-tetradecahydro-8H-7,10-methanocyclopropa[18,19][1,10,3,6]dioxadiazacyclononadecino[11,12-b]quinoxaline-8-carboxamide] | 6.71 | 6.71 | 6.57 | 6.61 | 6.65 | 5.95 | 6.40 | 6.65
2 | CC[C@@H]1[C@@H]2CN(C(=O)[C@H](C(C)(C)C)NC(=O)O[C@]3(C)CCC[C@H]3CCCCCc3nc4ccc(OC)cc4nc3O2)[C@@H]1C(=O)N[C@]1(C(=O)NS(=O)(=O)C2(C)CC2)C[C@H]1CC(F)F [Example 41, (3aR,7S,10S,11S,12R,24aR)-7-tert-butyl-N-[(1R,2S)-2-(2,2-difluoroethyl)-1-{[(1-methylcyclopropyl)sulfonyl]carbamoyl}cyclopropyl]-11-ethyl-16-methoxy-3a-methyl-5,8-dioxo-1,2,3,3a,5,6,7,8,11,12,20,21,22,23,24,24a-hexadecahydro-10H-9,12-methanocyclopenta[18,19][1,10,3,6]dioxadiazacyclononadecino[11,12-b]quinoxaline-10-carboxamide] | 6.97 | 6.27 | 6.87 |  |  |  | 6.85 | 
3 | COc1ccc2nc3c(nc2c1)O[C@H]1CN(C(=O)[C@H](C(C)(C)C)NC(=O)O[C@@H]2C[C@H]2CCCCC3F)[C@H](C(=O)N[C@]2(C(=O)NS(=O)(=O)C3(C)CC3)C[C@H]2C(F)F)[C@@H]1C (stereo partly drawn) [Example 47, (1aR,5S,8S,9S,10R,22aR)-5-tert-butyl-N-[(1R,2R)-2-(difluoromethyl)-1-{[(1-methylcyclopropyl)sulfonyl]carbamoyl}cyclopropyl]-18-fluoro-14-methoxy-9-methyl-3,6-dioxo-1,1a,3,4,5,6,9,10,18,19,20,21,22,22a-tetradecahydro-8H-7,10-methanocyclopropa[18,19][1,10,3,6]dioxadiazacyclononadecino[11,12-b]quinoxaline-8-carboxamide] | 7.92 | 7.77 | 8.42 | 7.92 | 8.38 | 7.24 | 8.44 | 8.21
4 | C[C@@H]1[C@@H]2CN(C(=O)[C@H](C(C)(C)C)NC(=O)O[C@@H]3C[C@H]3CCCCC(F)(F)c3nc4ccc(Cl)cc4nc3O2)[C@@H]1C(=O)N[C@]1(C(=O)NS(=O)(=O)C2(C)CC2)C[C@H]1C(F)F [Example 88, (1aR,5S,8S,9S,10R,22aR)-5-tert-butyl-14-chloro-N-[(1R,2R)-2-(difluoromethyl)-1-{[(1-methylcyclopropyl)sulfonyl]carbamoyl}cyclopropyl]-18,18-difluoro-9-methyl-3,6-dioxo-1,1a,3,4,5,6,9,10,18,19,20,21,22,22a-tetradecahydro-8H-7,10-methanocyclopropa[18,19][1,10,3,6]dioxadiazacyclononadecino[11,12-b]quinoxaline-8-carboxamide] | 8.57 | 7.46 | 8.03 | 7.62 | 8.39 | 6.98 | 8.34 | 7.85
